Reference: ChEMBL document CHEMBL1143464, “Trifluoromethyl group as a pharmacophore: effect of replacing a CF3 group on binding and agonist activity of a glucocorticoid receptor ligand” (Bioorg Med Chem Lett, 2005)

Key:
Progesterone receptor = target: T1, Progesterone receptor (Homo sapiens, UniProt P06401); experiment: Binding affinity towards progesterone receptor using fluorescence polarization competitive binding assay
T1 sequence (P06401 whole entry): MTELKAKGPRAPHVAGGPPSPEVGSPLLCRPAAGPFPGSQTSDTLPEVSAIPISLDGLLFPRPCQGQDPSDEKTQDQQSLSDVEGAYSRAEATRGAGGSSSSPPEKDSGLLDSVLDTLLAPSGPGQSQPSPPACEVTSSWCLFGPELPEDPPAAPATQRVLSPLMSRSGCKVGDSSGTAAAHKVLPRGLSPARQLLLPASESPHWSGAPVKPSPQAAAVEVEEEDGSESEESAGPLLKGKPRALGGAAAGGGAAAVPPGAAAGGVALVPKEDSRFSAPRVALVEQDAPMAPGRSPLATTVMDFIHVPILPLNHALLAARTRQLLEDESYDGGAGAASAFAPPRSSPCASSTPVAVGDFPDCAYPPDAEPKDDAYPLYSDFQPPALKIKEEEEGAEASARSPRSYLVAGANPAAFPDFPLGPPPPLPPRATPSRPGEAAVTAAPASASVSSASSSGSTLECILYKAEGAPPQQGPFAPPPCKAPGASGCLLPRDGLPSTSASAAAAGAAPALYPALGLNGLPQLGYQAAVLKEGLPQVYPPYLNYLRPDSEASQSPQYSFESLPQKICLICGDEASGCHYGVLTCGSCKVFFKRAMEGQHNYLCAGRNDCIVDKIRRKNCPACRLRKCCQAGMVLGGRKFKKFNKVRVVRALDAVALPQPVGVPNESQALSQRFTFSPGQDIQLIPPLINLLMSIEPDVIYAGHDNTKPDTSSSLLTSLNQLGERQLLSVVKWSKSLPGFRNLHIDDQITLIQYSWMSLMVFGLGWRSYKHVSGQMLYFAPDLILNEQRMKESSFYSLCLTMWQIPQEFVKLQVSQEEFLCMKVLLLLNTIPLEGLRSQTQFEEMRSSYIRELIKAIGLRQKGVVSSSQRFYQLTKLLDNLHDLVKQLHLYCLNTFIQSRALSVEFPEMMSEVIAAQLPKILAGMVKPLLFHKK

Glucocorticoid receptor [1] = target: T2, Glucocorticoid receptor (Homo sapiens, UniProt P04150); experiment: Binding affinity towards glucocorticoid receptor using fluorescence polarization competitive binding assay
T2 sequence (P04150 whole entry): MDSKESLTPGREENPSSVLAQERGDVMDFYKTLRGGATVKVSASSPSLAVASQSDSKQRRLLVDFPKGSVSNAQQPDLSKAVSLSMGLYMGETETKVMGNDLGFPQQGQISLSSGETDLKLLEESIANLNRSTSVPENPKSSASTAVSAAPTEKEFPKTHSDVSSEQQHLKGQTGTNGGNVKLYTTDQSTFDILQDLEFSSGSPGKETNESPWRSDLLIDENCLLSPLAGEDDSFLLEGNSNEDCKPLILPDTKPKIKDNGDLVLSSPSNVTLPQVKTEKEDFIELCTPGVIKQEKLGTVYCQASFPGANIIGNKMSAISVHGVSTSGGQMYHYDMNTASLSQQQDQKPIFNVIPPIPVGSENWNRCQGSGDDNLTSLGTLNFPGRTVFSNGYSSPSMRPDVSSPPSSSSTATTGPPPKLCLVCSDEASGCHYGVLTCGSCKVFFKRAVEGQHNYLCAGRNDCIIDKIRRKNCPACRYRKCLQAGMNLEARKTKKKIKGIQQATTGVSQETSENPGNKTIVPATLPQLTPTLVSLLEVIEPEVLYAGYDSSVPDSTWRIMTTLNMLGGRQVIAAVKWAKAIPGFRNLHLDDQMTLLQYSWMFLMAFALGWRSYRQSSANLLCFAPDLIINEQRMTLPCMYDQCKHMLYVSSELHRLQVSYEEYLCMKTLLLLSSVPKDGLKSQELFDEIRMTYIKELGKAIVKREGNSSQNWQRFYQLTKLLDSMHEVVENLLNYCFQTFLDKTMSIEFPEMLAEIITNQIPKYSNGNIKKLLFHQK

[2] = target: T3, Mineralocorticoid receptor (Homo sapiens, UniProt P08235); experiment: Binding affinity towards mineralocorticoid receptor using fluorescence polarization competitive binding assay
T3 sequence (P08235 whole entry): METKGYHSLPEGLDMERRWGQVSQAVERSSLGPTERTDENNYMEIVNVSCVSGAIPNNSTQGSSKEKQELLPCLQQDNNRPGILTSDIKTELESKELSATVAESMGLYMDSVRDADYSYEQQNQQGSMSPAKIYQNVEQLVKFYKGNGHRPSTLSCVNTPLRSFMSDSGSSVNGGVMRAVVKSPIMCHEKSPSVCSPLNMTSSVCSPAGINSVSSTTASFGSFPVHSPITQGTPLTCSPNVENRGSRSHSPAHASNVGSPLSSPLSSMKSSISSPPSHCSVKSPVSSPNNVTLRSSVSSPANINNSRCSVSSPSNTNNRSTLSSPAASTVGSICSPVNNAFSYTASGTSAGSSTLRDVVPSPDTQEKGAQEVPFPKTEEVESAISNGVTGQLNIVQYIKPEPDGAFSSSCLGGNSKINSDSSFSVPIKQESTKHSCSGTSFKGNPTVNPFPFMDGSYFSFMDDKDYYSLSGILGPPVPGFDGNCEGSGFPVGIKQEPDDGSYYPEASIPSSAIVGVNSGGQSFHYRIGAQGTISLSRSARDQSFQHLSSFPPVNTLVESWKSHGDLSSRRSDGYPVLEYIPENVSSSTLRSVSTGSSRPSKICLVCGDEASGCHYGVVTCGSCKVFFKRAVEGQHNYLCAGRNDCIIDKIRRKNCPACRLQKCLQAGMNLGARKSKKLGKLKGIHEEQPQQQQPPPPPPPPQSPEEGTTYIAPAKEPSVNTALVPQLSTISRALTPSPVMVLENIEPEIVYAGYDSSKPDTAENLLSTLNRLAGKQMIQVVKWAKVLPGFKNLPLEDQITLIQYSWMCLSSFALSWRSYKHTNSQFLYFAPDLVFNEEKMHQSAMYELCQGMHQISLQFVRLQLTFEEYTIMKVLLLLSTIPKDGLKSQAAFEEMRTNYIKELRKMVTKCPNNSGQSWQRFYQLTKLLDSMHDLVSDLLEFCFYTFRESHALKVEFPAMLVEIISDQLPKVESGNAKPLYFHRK

Glucocorticoid receptor [3] = target: T2, Glucocorticoid receptor; experiment: Effective concentration against inhibition of Dexamethasone induced glucocorticoid receptor transactivation of mouse mammary tumor virus luciferase gene in HeLa cells; assay type: cell-based
Glucocorticoid receptor [4] = target: T2, Glucocorticoid receptor; experiment: Effective agonist concentration for transcriptional repression of IL-6 production in IL-1 stimulated human foreskin fibroblasts; assay type: functional

SMILES | IC50 (Progesterone receptor) [nM] | IC50 (Glucocorticoid receptor [1]) [nM] | IC50 [2] [nM] | EC50 (Glucocorticoid receptor [3]) [nM] | EC50 (Glucocorticoid receptor [4]) [nM]
CC(C)(C)c1ccc(CC(O)(CC(C)(C)c2ccccc2)C(=O)Nc2ccc3c(c2)COC3=O)cc1 (stereo unspecified) | 330 | 72 | 175 | 760 | 
CC(C)(CC(O)(Cc1ccc(-c2ccccc2)cc1)C(=O)Nc1ccc2c(c1)COC2=O)c1ccccc1 (stereo unspecified) | 180 | 740 |  |  | 
COc1ccc(F)cc1C(C)(C)CC(O)(C(=O)Nc1ccc2c(c1)COC2=O)C(F)(F)F (stereo unspecified) | 85 | 230 |  |  | 
CC(C)(CC(O)C(=O)Nc1ccc2c(c1)COC2=O)c1ccccc1 (stereo unspecified) | > 2000 | > 2000 |  |  | 
CC(C)(CC(O)(C(=O)Nc1ccc2c(c1)COC2=O)c1ccccc1)c1ccccc1 (stereo unspecified) | 240 | 460 |  |  | 
CC(C)(CC(O)(CCc1ccccc1)C(=O)Nc1ccc2c(c1)COC2=O)c1ccccc1 (stereo unspecified) | 59 | 57 |  |  | 
Cc1noc(=O)c2ccc(NC(=O)C(O)(Cc3ccccc3)CC(C)(C)c3ccccc3)cc12 (stereo unspecified) | 30 | 7 |  |  | 
CC(O)(CC(C)(C)c1ccccc1)C(=O)Nc1ccc2c(c1)COC2=O (stereo unspecified) | 85 | 370 | 60 | 2370 | 
CC(C)(CC(O)(Cc1ccccn1)C(=O)Nc1ccc2c(c1)COC2=O)c1ccccc1 (stereo unspecified) | 400 | 760 |  |  | 
CC(C)(CC(Cc1ccccc1)C(=O)Nc1ccc2c(c1)COC2=O)c1ccccc1 (stereo unspecified) | 2000 | > 2000 |  |  | 
CC(C)(CC(O)(CC1CCCCC1)C(=O)Nc1ccc2c(c1)COC2=O)c1ccccc1 (stereo in doubt) | 210 | 320 |  |  | 
CC(C)(CC(O)(Cc1ccc2ccccc2c1)C(=O)Nc1ccc2c(c1)COC2=O)c1ccccc1 (stereo unspecified) | 48 | 110 |  |  | 
CC(C)(CC(O)(Cc1cc(O)cc(O)c1)C(=O)Nc1ccc2c(c1)COC2=O)c1ccccc1 (stereo unspecified) | 160 | > 2000 |  |  | 
CC(C)C(O)(CC(C)(C)c1ccccc1)C(=O)Nc1ccc2c(c1)COC2=O (stereo unspecified) | 210 | 200 | 315 | 620 | 
Cc1cc(C)cc(CC(O)(CC(C)(C)c2cc(F)ccc2O)C(=O)Nc2ccc3c(c2)COC3=O)c1 (stereo unspecified) | 51 | 470 |  |  | 
COc1ccc(F)cc1C(C)(C)CC(O)(CNc1ccc2c(c1)COC2=O)Cc1ccccc1 (stereo unspecified) | 80 | 81 | 195 | 610 | 
CC(C)(CC(O)(Cc1ccccc1O)C(=O)Nc1ccc2c(c1)COC2=O)c1ccccc1 (stereo unspecified) | 47 | 61 |  |  | 
Cc1noc(=O)c2ccc(NC(=O)C(O)(CC3CCCCC3)CC(C)(C)c3cc(F)ccc3O)cc12 (stereo unspecified) | 35 | 7 | 104 | 120 | 
CC(C)(CC(O)(Cc1ccccc1)C(=O)Nc1ccc2c(c1)COC2=O)c1ccccc1 (stereo unspecified) | 30 | 13 | 160 | 205 | 

Now from value to molecule:

IC50 (Progesterone receptor) [nM] | IC50 (Glucocorticoid receptor [1]) [nM] | IC50 [2] [nM] | EC50 (Glucocorticoid receptor [3]) [nM] | EC50 (Glucocorticoid receptor [4]) [nM] | SMILES
40 | 9 |  |  |  | Cc1noc(=O)c2ccc(NC(=O)C(O)(CC3CCCCC3)CC(C)(C)c3ccccc3)cc12 (stereo unspecified)
35 | 52 |  |  |  | COc1ccc(F)cc1C(C)(C)CC(O)(Cc1ccccc1)C(=O)Nc1ccc2c(c1)COC2=O (stereo unspecified)
35 | 9 |  |  |  | CC(C)(CC(O)(CC1CCCCC1)C(=O)Nc1ccc2c(c1)COC2=O)c1ccccc1 (single isomer, unassigned)
36 | 48 |  |  |  | Cc1ccccc1CC(O)(CC(C)(C)c1cc(F)ccc1O)C(=O)Nc1ccc2c(c1)COC2=O (stereo unspecified)
16 | 6 | 30 | 150 | 45 | CC(C)(CC(O)(C(=O)Nc1ccc2c(c1)COC2=O)C(F)(F)F)c1cc(F)ccc1O (stereo unspecified)
34 | 52 |  |  |  | Cc1cccc(CC(O)(CC(C)(C)c2cc(F)ccc2O)C(=O)Nc2ccc3c(c2)COC3=O)c1 (stereo unspecified)
36 | 79 | 215 | 150 |  | CC(C)(CC(O)(C(=O)Nc1ccc2c(c1)COC2=O)C(F)(F)F)c1ccccc1 (stereo unspecified)
35 | 60 | 190 | 420 |  | CC(C)(CC(O)(Cc1ccccc1)C(=O)Nc1ccc2c(c1)COC2=O)c1cc(F)ccc1O (stereo unspecified)
42 | 20 | 140 | 130 |  | CC(C)(CC(O)(CC1CCCCC1)C(=O)Nc1ccc2c(c1)COC2=O)c1cc(F)ccc1O (stereo unspecified)
19 | 9 | 170 | 140 |  | CC(C)(CC(O)(CC1CCCCC1)C(=O)Nc1ccc2c(c1)COC2=O)c1ccccc1 (stereo in doubt; 6)
32 | 8 | 104 | 130 |  | Cc1noc(=O)c2ccc(NC(=O)C(O)(Cc3ccccc3)CC(C)(C)c3cc(F)ccc3O)cc12 (stereo unspecified)
22 | 4 | 41 |  | 10 | Cc1noc(=O)c2ccc(NC(=O)C(O)(CC(C)(C)c3cc(F)ccc3O)C(F)(F)F)cc12 (stereo unspecified)
44 | 120 |  |  |  | CC(C)(CC(O)(Cc1cccc(O)c1)C(=O)Nc1ccc2c(c1)COC2=O)c1ccccc1 (stereo unspecified)
